{"source": "ChEMBL document CHEMBL5321293", "about": "“Discovery of ERD-3111 as a Potent and Orally Efficacious Estrogen Receptor PROTAC Degrader with Strong Antitumor Activity” (J Med Chem, 2023)", "key": {"[1]": {"experiment": "Half life in Sprague-Dawley rat at 3 mg/kg, po and measured upto 24 hrs by LC-MS/MS analysis", "details": "in vivo"}, "[2]": {"experiment": "Volume of distribution at steady state in ICR mouse at 1 mg/kg, iv and measured upto 24 hrs by LC-MS/MS analysis", "format": "ADME, organism-based", "details": "in vivo, read-out: Vdss"}, "[3]": {"experiment": "Half life in Beagle dog at 1 mg/kg, po and measured upto 24 hrs by LC-MS/MS analysis", "format": "ADME, organism-based, Canis lupus familiaris", "details": "in vivo"}, "[4]": {"biological_target": "Voltage-gated inwardly rectifying potassium channel KCNH2 (Homo sapiens, UniProt Q12809)", "sequence (Q12809 whole entry)": "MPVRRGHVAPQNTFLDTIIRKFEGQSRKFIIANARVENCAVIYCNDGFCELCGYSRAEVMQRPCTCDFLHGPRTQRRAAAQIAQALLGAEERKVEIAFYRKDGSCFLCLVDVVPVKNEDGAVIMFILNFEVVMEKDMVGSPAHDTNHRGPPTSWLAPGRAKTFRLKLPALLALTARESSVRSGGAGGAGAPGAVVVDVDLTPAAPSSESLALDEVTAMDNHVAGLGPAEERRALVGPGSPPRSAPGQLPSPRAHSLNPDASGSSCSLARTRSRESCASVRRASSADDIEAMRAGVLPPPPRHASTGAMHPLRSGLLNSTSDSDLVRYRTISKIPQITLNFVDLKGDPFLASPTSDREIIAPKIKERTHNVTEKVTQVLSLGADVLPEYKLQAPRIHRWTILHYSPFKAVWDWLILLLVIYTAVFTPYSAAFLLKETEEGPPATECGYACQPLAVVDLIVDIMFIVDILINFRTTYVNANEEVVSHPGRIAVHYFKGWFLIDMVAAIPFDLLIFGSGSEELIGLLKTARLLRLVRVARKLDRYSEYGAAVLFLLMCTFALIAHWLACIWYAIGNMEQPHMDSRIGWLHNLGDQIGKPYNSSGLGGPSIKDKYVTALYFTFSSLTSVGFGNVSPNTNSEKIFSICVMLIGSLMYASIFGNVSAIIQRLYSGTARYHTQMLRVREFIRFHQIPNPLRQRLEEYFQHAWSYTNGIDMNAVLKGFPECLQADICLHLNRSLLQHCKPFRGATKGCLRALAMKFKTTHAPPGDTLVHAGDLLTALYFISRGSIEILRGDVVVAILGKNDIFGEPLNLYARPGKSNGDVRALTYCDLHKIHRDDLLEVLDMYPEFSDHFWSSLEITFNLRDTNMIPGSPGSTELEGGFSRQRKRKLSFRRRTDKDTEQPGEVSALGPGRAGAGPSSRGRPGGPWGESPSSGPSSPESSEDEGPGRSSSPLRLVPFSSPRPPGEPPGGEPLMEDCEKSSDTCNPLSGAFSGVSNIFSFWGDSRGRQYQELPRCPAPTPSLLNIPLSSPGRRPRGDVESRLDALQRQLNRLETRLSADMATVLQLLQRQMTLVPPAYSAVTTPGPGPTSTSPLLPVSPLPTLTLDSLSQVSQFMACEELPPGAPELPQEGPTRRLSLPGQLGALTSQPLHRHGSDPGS", "experiment": "Inhibition of human ERG in human HEK293 cells incubated for 5 mins by patch clamp assay", "format": "toxicity, cell-based"}, "[5]": {"biological_target": "Cytochrome P450 3A4 (Homo sapiens, UniProt P08684)", "sequence (P08684 whole entry)": "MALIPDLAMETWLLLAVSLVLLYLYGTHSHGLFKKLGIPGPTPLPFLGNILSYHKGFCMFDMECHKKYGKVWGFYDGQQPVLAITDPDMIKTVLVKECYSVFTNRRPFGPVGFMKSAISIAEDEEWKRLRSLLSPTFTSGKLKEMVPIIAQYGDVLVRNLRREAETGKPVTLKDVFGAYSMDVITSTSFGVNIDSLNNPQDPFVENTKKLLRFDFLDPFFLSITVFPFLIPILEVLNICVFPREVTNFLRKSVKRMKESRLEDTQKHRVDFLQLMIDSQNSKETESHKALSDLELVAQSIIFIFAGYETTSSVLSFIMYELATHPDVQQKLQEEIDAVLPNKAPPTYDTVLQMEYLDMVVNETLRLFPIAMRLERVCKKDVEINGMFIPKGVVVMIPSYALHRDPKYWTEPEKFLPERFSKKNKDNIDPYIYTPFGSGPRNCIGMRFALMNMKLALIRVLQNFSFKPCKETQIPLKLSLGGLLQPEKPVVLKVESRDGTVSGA", "experiment": "Inhibition of CYP3A4 in human liver microsomes using testosterone as substrate preincubated for 5 mins followed by NADPH addition and measured after 10 mins by LC-MS/MS analysis", "format": "ADME, Microsome"}, "[6]": {"experiment": "Drug concentration in plasma of CB17 SCID mouse xenografted with human MCF7 cells harboring wild type ESR1 at 30 mg/kg, po qd for 3 days and measured after 6 hrs last dose by LC-MS/MS analysis", "format": "ADME, organism-based", "details": "time 3 day"}, "[7]": {"experiment": "Drug concentration in tumor of CB17 SCID mouse xenografted with human MCF7 cells harboring wild type ESR1 at 30 mg/kg, po qd for 3 days and measured after 6 hrs last dose by LC-MS/MS analysis", "format": "ADME, organism-based, Neoplasm", "details": "time 3 day, read-out: Ct"}, "[8]": {"experiment": "Drug concentration in tumor of CB17 SCID mouse xenografted with human MCF7 cells harboring wild type ESR1 at 30 mg/kg, po qd for 3 days and measured after 24 hrs last dose by LC-MS/MS analysis", "format": "ADME, organism-based, Neoplasm", "details": "time 3 day, read-out: Ct"}, "[9]": {"experiment": "Drug concentration in plasma of CB17 SCID mouse xenografted with human MCF7 cells harboring wild type ESR1 at 30 mg/kg, po qd for 3 days and measured after 3 hrs last dose by LC-MS/MS analysis", "format": "ADME, organism-based", "details": "time 3 day"}, "[10]": {"experiment": "Downregulation of ERalpha protein expression in tumor of CB17 SCID mouse xenografted with human MCF7 cells harboring ESR1 Y537S mutant at 30 mg/kg, po qd for 3 days and measured after 6 hrs last dose by Western blot analysis relative to control", "format": "functional", "details": "time 3 day"}, "[11]": {"experiment": "Drug concentration in plasma of CB17 SCID mouse xenografted with human MCF7 cells harboring ESR1 Y537S mutant at 30 mg/kg, po qd for 3 days and measured after 6 hrs last dose by LC-MS/MS analysis", "format": "ADME, organism-based", "details": "time 3 day"}, "[12]": {"tested_on": "MCF7", "experiment": "Antitumor activity against human MCF7 cells harboring wild type ESR1 xenografted in CB17 SCID mouse assessed as tumor growth inhibition at 30 mg/kg, po qd for 5 weeks and measured 3 weeks post last dose", "format": "functional", "details": "MCF7, 840 h, read-out: TGI"}, "[13]": {"tested_on": "MCF7", "experiment": "Antitumor activity against human MCF7 cells harboring ESR1 Y537S mutant xenografted in CB17 SCID mouse assessed as tumor growth inhibition at 10 mg/kg, po qd for 4 weeks", "format": "functional", "details": "MCF7, 672 h, read-out: TGI"}, "[14]": {"tested_on": "MCF7", "experiment": "Antitumor activity against human MCF7 cells harboring ESR1 Y537S mutant xenografted in CB17 SCID mouse assessed as tumor growth inhibition at 30 mg/kg, po qd for 4 weeks", "format": "functional", "details": "MCF7, 672 h, read-out: TGI"}, "[15]": {"tested_on": "MCF7", "experiment": "Antitumor activity against human MCF7 cells harboring ESR1 Y537S mutant xenografted in CB17 SCID mouse assessed as tumor growth inhibition at 30 mg/kg, po qd for 4 weeks and measured 30 days post last dose", "format": "functional", "details": "MCF7, 672 h, read-out: TGI"}, "[16]": {"tested_on": "MCF7", "experiment": "Antitumor activity against human MCF7 cells harboring ESR1 D538G mutant xenografted in CB17 SCID mouse assessed as tumor growth inhibition at 30 mg/kg, po qd for 4 weeks and measured 1 week post last dose", "format": "functional, organism-based"}, "[17]": {"experiment": "Toxicity in CB17 SCID mouse xenografted with human MCF7 cells harboring wild type ESR1 assessed as body weight change at 10 mg/kg,po qd for 5 weeks", "format": "organism-based", "details": "in vivo, 840 h"}, "[18]": {"experiment": "in vivo", "details": "Sprague-Dawley, rat, po, 3 mg/kg"}}, "note": "The source made the active and inactive calls. The calls are words filed in the database; no cut-off is given here.", "data": [{"smiles": "C[C@@H]1Cc2c(ccc3[nH]ncc23)[C@@H](c2c(F)cc(N3CCC4(CCN(C(=O)CN5Cc6cc7c(cc6C5)C(=O)N(C5CCC(=O)NC5=O)C7=O)CC4)CC3)cc2F)N1CC(F)F", "note": "(stereo partly drawn)", "values": [{"measurement": "half-life at 24 h", "setting": "[1]", "value": 240, "unit": "min"}, {"measurement": "Vd", "setting": "[2]", "value": 3.2, "unit": "L/kg"}, {"measurement": "half-life", "setting": "[3]", "value": 474, "unit": "min"}, {"measurement": "IC50", "setting": "[4]", "value": "> 30", "unit": "µM"}, {"measurement": "IC50", "setting": "[5]", "value": "> 10", "unit": "µM"}, {"measurement": "concentration at 72 h", "setting": "[6]", "value": 1440, "unit": "ng/mL"}, {"measurement": "concentration at 72 h", "setting": "[7]", "value": 1470, "unit": "ng/mL"}, {"measurement": "concentration at 72 h", "setting": "[8]", "value": 413, "unit": "ng/mL"}, {"measurement": "concentration at 72 h", "setting": "[9]", "value": 1980, "unit": "ng/mL"}, {"measurement": "Activity", "setting": "[10]", "value": 85, "unit": "%"}, {"measurement": "concentration at 72 h", "setting": "[11]", "value": 2830, "unit": "ng/mL"}, {"measurement": "inhibition in vivo at 30 mg/kg", "setting": "[12]", "value": 42, "unit": "%"}, {"measurement": "inhibition in vivo at 10 mg/kg", "setting": "[13]", "value": 72, "unit": "%"}, {"measurement": "inhibition in vivo at 30 mg/kg", "setting": "[14]", "value": 86, "unit": "%"}, {"measurement": "inhibition in vivo at 30 mg/kg", "setting": "[15]", "value": 101, "unit": "%"}, {"measurement": "Activity", "setting": "[16]", "value": "Active"}, {"measurement": "Activity", "setting": "[17]", "value": "Non-Toxic"}, {"measurement": "bioavailability at 24 h", "setting": "[18]", "value": 20, "unit": "%"}]}]}
